Counter-ions that a name gives are not always drawn.
Molecular target: T1, HCV polymerase (Hepatitis C virus genotype 1b, UniProt P26663)
T1 construct: a region encoding NS5B (J Virol 1991 March, 65(3), 1105-13, 544 amino acids after deletion of 47 amino acids on the C-terminal); 6xHis (C); made in house; host or cells: Escherichia coli
Assay: biochemical
Parameters: species or system HCV BK strain
Procedure, shortened: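 His-tagged NS5B (BK strain, 47-aa C-terminal deletion, E. coli-expressed) at 0.5 μg/ml copied 5 μg/ml run-off RNA bearing the HCV 3′ UTR with 2 μM UTP plus [3H]UTP, 50 μM ATP/GTP, in pH 7.5 Tris with 5 mM MgCl2, 25 °C, 90 min. TCA-precipitated RNA was counted and IC50 calculated.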

T1 sequence (P26663 2420-2963): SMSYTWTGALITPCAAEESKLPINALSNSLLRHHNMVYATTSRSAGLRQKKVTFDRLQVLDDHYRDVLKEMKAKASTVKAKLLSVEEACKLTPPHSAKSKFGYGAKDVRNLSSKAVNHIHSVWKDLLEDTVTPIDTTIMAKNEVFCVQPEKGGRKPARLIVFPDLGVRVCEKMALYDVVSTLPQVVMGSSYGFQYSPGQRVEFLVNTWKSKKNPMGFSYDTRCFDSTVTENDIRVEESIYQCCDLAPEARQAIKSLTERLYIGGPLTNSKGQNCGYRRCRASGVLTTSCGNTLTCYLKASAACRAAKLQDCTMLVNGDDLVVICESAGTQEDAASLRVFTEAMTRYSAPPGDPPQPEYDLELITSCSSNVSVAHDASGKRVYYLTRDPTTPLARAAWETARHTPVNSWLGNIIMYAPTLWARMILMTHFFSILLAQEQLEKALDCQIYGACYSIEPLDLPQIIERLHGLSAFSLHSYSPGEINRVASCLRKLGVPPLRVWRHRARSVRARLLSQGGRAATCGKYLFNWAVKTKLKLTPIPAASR

`O=C(O)c1ccc2c(C3CCCCC3)c3n(c2c1)CCN(CCCC(=O)N1CCOCC1)c1ccccc1-3` [Example 1-61, 13-cyclohexyl-5-[4-(morpholin-4-yl)-4-oxobutyl]-6,7-dihydro-5H-benzo[5,6][1,4]diazepino[7,1-a]indole-10-carboxylic acid monohydrochloride] and `O=C(O)c1ccc2c(C3CCCCC3)c3n(c2c1)CCN(CCCCN1CCOCC1)c1ccccc1-3` [Example 1-80, 13-cyclohexyl-5-[4-(morpholin-4-yl)butyl]-6,7-dihydro-5H-benzo[5,6][1,4]diazepino[7,1-a]indole-10-carboxylic acid dihydrochloride] cannot be ordered by IC50: < 100 nM for the first, < 100 nM for the second.

`CCOc1ccc2c(c1)N(C)CCn1c-2c(C2CCCCC2)c2ccc(C(=O)NC3(C(=O)Nc4ccc(/C=C/C(=O)O)c(C)c4)CCC3)cc21` [Example 1-621, (E)-3-[4-({1-[(13-cyclohexyl-3-ethoxy-5-methyl-6,7-dihydro-5H-benzo[5,6][1,4]diazepino[7,1-a]indole-10-carbonyl)amino]cyclobutanecarbonyl}amino)-2-methylphenyl]acrylic acid] and `CC(=O)N1CCC(NC(=O)c2ccc3c(C4CCCCC4)c4n(c3c2)CCOc2ccccc2-4)(C(=O)Nc2ccc(/C=C/C(=O)O)cc2)CC1` [Example 2-222, (E)-3-[4-({1-acetyl-4-[(12-cyclohexyl-6,7-dihydro-5-oxa-7a-azadibenzo[a,e]azulene-9-carbonyl)amino]piperidine-4-carbonyl}amino)phenyl]acrylic acid] cannot be ordered by IC50: < 100 nM for the first, < 100 nM for the second.

First: Cc1nc(C)c(COc2ccc3c(c2)N(CCN2CCCCC2)CCn2c-3c(C3CCCCC3)c3ccc(C(=O)O)cc32)s1 [Example 1-402, 13-cyclohexyl-3-(2,4-dimethylthiazol-5-ylmethoxy)-5-[2-(piperidin-1-yl)ethyl]-6,7-dihydro-5H-benzo[5,6][1,4]diazepino[7,1-a]indole-10-carboxylic acid dihydrochloride]
Second: Cc1ccc2c(c1)-c1c(C3CCCCC3)c3ccc(C(=O)O)cc3n1CCN2CCN1CCCCC1 [Example 1-191, 13-cyclohexyl-2-methyl-5-[2-(piperidin-1-yl)ethyl]-6,7-dihydro-5H-benzo[5,6][1,4]diazepino[7,1-a]indole-10-carboxylic acid dihydrochloride]
The IC50 of the first is lower: < 100 nM for the first, 100 to 1000 nM for the second. The first is the more potent here.

`O=C(O)c1ccc2c(C3CCCCC3)c3n(c2c1)CCN(CCN1CCCCC1)c1ncccc1-3` [Example 1-549, 12-cyclohexyl-5-[2-(piperidin-1-yl)ethyl]-6,7-dihydro-5H-4,5,7a-triazadibenzo[a,e]azulene-9-carboxylic acid dihydrochloride] and `COC1CCCN(CCN2CCn3c(c(C4CCCCC4)c4ccc(C(=O)O)cc43)-c3ccccc32)C1` (stereo not drawn) [Example 1-151, 13-cyclohexyl-5-[2-(3-methoxypiperidin-1-yl)ethyl]-6,7-dihydro-5H-benzo[5,6][1,4]diazepino[7,1-a]indole-10-carboxylic acid dihydrochloride] cannot be ordered by IC50: < 100 nM for the first, < 100 nM for the second.

`O=C(O)c1ccc2c(C3CCCCC3)c3n(c2c1)CCOc1c(OCc2cc(N4CCCC4=O)ccc2N2CCOCC2)cccc1-3` [Example 2-471, 12-cyclohexyl-4-[2-(morpholin-4-yl)-5-(2-oxopyrrolidin-1-yl)benzyloxy]-6,7-dihydro-5-oxa-7a-azadibenzo[a,e]azulene-9-carboxylic acid monohydrochloride] and `CS(=O)(=O)N1CCN(c2ccc(N3CCCC3=O)cc2COc2ccc3c(c2)OCCn2c-3c(C3CCCCC3)c3ccc(C(=O)O)cc32)CC1` [Example 2-13, 12-cyclohexyl-3-[2-(4-methanesulfonylpiperazin-1-yl)-5-(2-oxopyrrolidin-1-yl)benzyloxy]-6,7-dihydro-5-oxa-7a-azadibenzo[a,e]azulene-9-carboxylic acid monohydrochloride] cannot be ordered by IC50: < 100 nM for the first, < 100 nM for the second.

First: O=C(Nc1nc2ccccc2[nH]1)c1ccc2c(C3CCCCC3)c3n(c2c1)CCOc1ccccc1-3 [Example 2-267, N-(1H-benzimidazol-2-yl)-12-cyclohexyl-6,7-dihydro-5-oxa-7a-azadibenzo[a,e]azulene-9-carboxamide]
Second: Cc1cc2nc(C(C)(C)NC(=O)c3ccc4c(C5CCCCC5)c5n(c4c3)CCOc3ccccc3-5)[nH]c2cc1C(=O)O [Example 2-283]
The IC50 of the first is higher: 100 to 1000 nM for the first, < 100 nM for the second.

`CS(=O)(=O)c1ccc(N2CCOCC2)c(COc2ccc3c(c2)OCCn2c-3c(C3CCCCC3)c3ccc(C(=O)O)cc32)c1` [Example 2-12, 12-cyclohexyl-3-[5-methanesulfonyl-2-(morpholin-4-yl)benzyloxy]-6,7-dihydro-5-oxa-7a-azadibenzo[a,e]azulene-9-carboxylic acid monohydrochloride] and `CN1CCC(N(C)CCOc2cccc3c2OCCn2c-3c(C3CCCCC3)c3ccc(C(=O)O)cc32)CC1` [Example 2-472, 12-cyclohexyl-4-{2-[N-methyl-N-(1-methylpiperidin-4-yl)amino]ethoxy}-6,7-dihydro-5-oxa-7a-azadibenzo[a,e]azulene-9-carboxylic acid trihydrochloride] cannot be ordered by IC50: < 100 nM for the first, < 100 nM for the second.

`COC(=O)[C@H](Cc1ccc(NC(=O)OCc2ccccc2)cc1)NC(=O)c1ccc2c(C3CCCCC3)c3n(c2c1)CCOc1cc(OC)ccc1-3` [Example 2-317, methyl (S)-3-(4-benzyloxycarbonylaminophenyl)-2-[(12-cyclohexyl-3-methoxy-6,7-dihydro-5-oxa-7a-azadibenzo[a,e]azulene-9-carbonyl)amino]propionate] and `COCC(C)(NC(=O)c1ccc2c(C3CCCCC3)c3n(c2c1)CCOc1ccccc1-3)C(=O)Nc1ccc(/C=C/C(=O)O)cc1` (stereo not drawn) [Example 2-163, (E)-3-(4-{2-[(12-cyclohexyl-6,7-dihydro-5-oxa-7a-azadibenzo[a,e]azulene-9-carbonyl)amino]-3-methoxy-2-methylpropionylamino}phenyl)acrylic acid] cannot be ordered by IC50: < 100 nM for the first, < 100 nM for the second.

`COC1CCN(CCN2CCn3c(c(C4CCCCC4)c4ccc(C(=O)O)cc43)-c3ccccc32)C1` (stereo not drawn) [Example 1-238, 13-cyclohexyl-5-[2-(3-methoxypyrrolidin-1-yl)ethyl]-6,7-dihydro-5H-benzo[5,6][1,4]diazepino[7,1-a]indole-10-carboxylic acid dihydrochloride] and `O=C(O)c1ccc2c(C3CCCCC3)c3n(c2c1)CCN(CCCO)c1ccccc1-3` [Example 1-112, 13-cyclohexyl-5-(3-hydroxypropyl)-6,7-dihydro-5H-benzo[5,6][1,4]diazepino[7,1-a]indole-10-carboxylic acid monohydrochloride] cannot be ordered by IC50: < 100 nM for the first, < 100 nM for the second.

`CCC1COCCN1CCN1CCn2c(c(C3CCCCC3)c3ccc(C(=O)O)cc32)-c2ccc(C)cc21` (stereo not drawn) [Example 1-292, 13-cyclohexyl-5-[2-(3-ethylmorpholin-4-yl)ethyl]-3-methyl-6,7-dihydro-5H-benzo[5,6][1,4]diazepino[7,1-a]indole-10-carboxylic acid dihydrochloride] and `CCCN1CCCC(CCN2CCn3c(c(C4CCCCC4)c4ccc(C(=O)O)cc43)-c3ccc(C)cc32)C1` (stereo not drawn) [Example 1-410, 13-cyclohexyl-3-methyl-5-[2-(1-propylpiperidin-3-yl)ethyl]-6,7-dihydro-5H-benzo[5,6][1,4]diazepino[7,1-a]indole-10-carboxylic acid dihydrochloride] cannot be ordered by IC50: < 100 nM for the first, < 100 nM for the second.

`CC(C)(NC(=O)c1ccc2c(C3CCCCC3)c3n(c2c1)CCOc1ccccc1-3)C(=O)N1CCCC(O)C1` (stereo not drawn) [Example 2-240, N-[2-(3-hydroxypiperidin-1-yl)-1,1-dimethyl-2-oxoethyl]-12-cyclohexyl-6,7-dihydro-5-oxa-7a-azadibenzo[a,e]azulene-9-carboxamide] and `CC(C)(COc1ccc(N2CCCC2=O)cc1)NC(=O)c1ccc2c(C3CCCCC3)c3n(c2c1)CCOc1ccccc1-3` [Example 2-226, N-{1,1-dimethyl-2-[4-(2-oxopyrrolidin-1-yl)phenoxy]ethyl}-12-cyclohexyl-6,7-dihydro-5-oxa-7a-azadibenzo[a,e]azulene-9-carboxamide] cannot be ordered by IC50: < 100 nM for the first, < 100 nM for the second.

First: O=C(O)c1ccc2c(C3CCCCC3)c3n(c2c1)CCCn1cccc1-3 [Example 6-2, 13-cyclohexyl-6,7-dihydro-5H-pyrrolo[2′,1′:3,4][1,4]diazepino[1,2-a]indole-10-carboxylic acid]
Second: CC1CCCN(CCN2CCn3c(c(C4CCCCC4)c4ccc(C(=O)O)cc43)-c3ccc(F)cc32)C1 (stereo not drawn) [Example 1-254, 13-cyclohexyl-3-fluoro-5-[2-(3-methylpiperidin-1-yl)ethyl]-6,7-dihydro-5H-benzo[5,6][1,4]diazepino[7,1-a]indole-10-carboxylic acid dihydrochloride]
The IC50 of the first is higher: 100 to 1000 nM for the first, < 100 nM for the second. The second is the more potent here.

`CN(CCN1CCn2c(c(C3CCCCC3)c3ccc(C(=O)O)cc32)-c2ccccc21)C1CCN(S(C)(=O)=O)CC1` [Example 1-280, 13-cyclohexyl-5-{2-[N-(1-methanesulfonylpiperidin-4-yl)-N-methylamino]ethyl}-6,7-dihydro-5H-benzo[5,6][1,4]diazepino[7,1-a]indole-10-carboxylic acid] and `CC(C)OC(=O)N1CCN(CCN2CCn3c(c(C4CCCCC4)c4ccc(C(=O)O)cc43)-c3ccccc32)CC1` [Example 1-226, 13-cyclohexyl-5-[2-(4-isopropoxycarbonylpiperazin-1-yl)ethyl]-6,7-dihydro-5H-benzo[5,6][1,4]diazepino[7,1-a]indole-10-carboxylic acid dihydrochloride] cannot be ordered by IC50: < 100 nM for the first, < 100 nM for the second.

In the case of `Cc1ccc2c(c1)N(CCC1CCCN(C3CCCC3)C1)CCn1c-2c(C2CCCCC2)c2ccc(C(=O)O)cc21` (stereo not drawn) [Example 1-380, 13-cyclohexyl-5-[2-(1-cyclopentylpiperidin-3-yl)ethyl]-3-methyl-6,7-dihydro-5H-benzo[5,6][1,4]diazepino[7,1-a]indole-10-carboxylic acid dihydrochloride], the IC50 is reported as < 100 nM.

From patent US20070049593A1 (priority 2004, published 2007)
